From patent US5126258A (priority 1988, dated 1992) come the findings set out here.

Structures are written as SMILES.

The Km is the concentration of substrate that gives half-maximal velocity. The kcat is the number of substrate molecules converted per active site and unit of time at saturation. As a reminder, the Vmax is the rate approached at saturating substrate.

Common to all, as to assay type: biochemical, mouse
One assay has as its system P2 50D8. Kind of assay: Catalytic hydrolysis by receptor P2 50D8. Here is the method:
Two further catalytic monoclonal receptors were similarly prepared by another fusion using Compound 2i linked to an antigenic carrier as immunogen. Those two catalytic receptor molecules and their hybridomas were designated "P2 50D8" and "P2 57G4".
In one study, twenty-eight monoclonal anti-hapten antibodies to phosphonate 2i from two separate fusion experiments were assayed. […] Antibodies to Compound 4i as hapten were assayed in the same manner. Twelve gamma-globulins were screened as described above. Compound 5 is homologous only in the acyl portion of this larger hapten; however, all but three of these cross-reacted with smaller phosphonate 2 in an ELISA assay as described herein. For two of these there was observed a fluorescence change, occurring in the first 5 minutes of incubation, which corresponds to about 50 percent of that for complete hydrolysis. The background rate of hydrolysis was reestablished after this initial reaction leveled off.

In assay [1] the test system is eight monoclonal receptors 21G2, 7E5, 37G2, 13E10, 12C9, 44A2, 17G8 and 22F5. Briefly: Catalyzed hydrolysis of reactant ligands by the eight QPN1 monoclonal receptors, summary. Particulars: pH 8.0. The procedure: Mice were hyperimmunized with the Compound 13-KLH conjugate over a three to four week time period. Sera were assayed in an ELISA using a Compound 13-BSA conjugate bound to microtiter plate wells as the solid-phase antigen. Cloned hybridomas were also screened using that ELISA assay.
Each of those catalyses could be inhibited by an appropriate analog-ligand. Thus, a relatively high percentage of induced monoclonal receptors was capable of catalyzing an esterolytic reaction. The reason for this relatively high percentage of useful receptors being induced is unknown, but could be due to the presence of phosphonamidate group nitrogen atom, as compared to a phosphonate oxygen atom, or to the quinoline nucleus of the analog-ligand. Those eight catalytic monoclonal receptors and the hybridomas that secrete them are identified by the laboratory designations "QPN1 7E5", "QPN1 12C9", "QPN1 13E10", "QPN1 17G8", "QPN1 21G2", "QPN1 22F5", "QPN1 37G2" and QPN1 44A2. The prefix "QPNI" is sometimes omitted herein when discussing these hybridomas and receptors.
Amide cleavage for Compounds 14 and 15 was assayed by analyzing for the production of free aminoquinaldine or aminonaphthalene by measuring the increase in the azo dye that results from derivatizing the free aminoquinaldine or aminonapthalene with a diazotization reagent.
Catalysis reactions were conducted by preparing a reaction admixture of 100 microliters (ul) total volume containing 5 micromolar (uM) monoclonal antibody, 50-75 uM amide reactant ligand substrate and a buffer described hereinafter. The buffer included in the above admixture varied depending upon the pH utilized as follows: pH 5, 10 […] sodium acetate, 10 mM sodium chloride; pH 7.2, 10 mM sodium phosphate, 0.15 molar (M) sodium chloride; pH 8.0; 50 mM sodium phosphate. The amide-containing substrates screened in this assay were added to the above admixture in 1 ul of a 100-fold concentrated stock solution of dimethyl formamide (DMF). Monoclonal antibody was added to the above admixture from a concentrated stock solution. The resulting admixture was placed into the well of a 96 well flat bottom microtiter plate (Costar, Cambridge, Mass.) and maintained in a moist vapor environment chamber at 23 degrees C. The production of aminoquinaldine or aminonaphthalene was then assayed as described below after 2,3,5, or 6 days.
The aminoquinaldine or aminonapthalene product produced by the catalyzed reaction was measured by first admixing 20 ul of 5M HCl, 80 ul acetone and 10 ul 0.5% (w/v) sodium nitrite to the reaction admixture to form a second admixture and maintaining that second admixture for 3 minutes at room temperature. Thereafter, 10 ul 2.5% (w/v) ammonium sulfamate was added to form a third admixture that was maintained for 2 minutes at room temperature. A still further 10 ul of 0.5% (w/v) N-(1-napthyl)ethylenediamine dihydrochloride was added to form a fourth admixture that was then maintained for 15 minutes at room temperature. Thereafter the resulting azo dye present in the fourth admixture was measured by absorbance spectroscopy at 540 nanometers (nm) for aminoquinaldine using a Model EL 309 Automated Microplate Reader (Bio-Tek Instruments, Winooski, Vt.).

The test system of assay [2] is twenty-eight monoclonal anti-hapten antibodies to phosphonate 2i. Kind of assay: Fluorescence assay of twenty-eight anti-phosphonate 2i antibodies with Compound 5. Particulars: pH 7.2. The procedure:
A Perkin-Elmer LS-5 fluorescence spectrometer was operated at a fixed wavelength, using 355 nanometers (nm) for excitation and measuring the emission at 455 nm. A stock solution of the coumarin ester 5 was prepared in dioxane and was diluted to the desired concentrations in Tris-HCl (50 mM, pH 7) or sodium phosphate (50 mM, pH 4-9).
Reactions were run at 23 degrees C and were initiated by the addition of an aliquot of antibody solution (1 mg/ml) to substrate solutions to provide a final protein concentration of 100 nM. Final fluorescence values were determined by hydrolysis of the substrate with pig liver esterase. The observed reaction rate was corrected for spontaneous hydrolysis. […] Active protein concentration was extrapolated from fluorescence values at the end of the reaction. […] Inhibition constants were determined from the Lineweaver-Burk plot data with at least five inhibitor concentrations. […]
The practical range of pH for the assay is limited by the rapid spontaneous rate of hydrolysis of an ester Compound 5 above pH 8.0. […] Any change in fluorescence above background was noted.
In one study, twenty-eight monoclonal anti-hapten antibodies to phosphonate 2i from two separate fusion experiments were assayed. […] For two of these there was observed a fluorescence change, occurring in the first 5 minutes of incubation, which corresponds to about 50 percent of that for complete hydrolysis. […]

For another assay, the system named is Monoclonal Receptor 37G2. Kind of assay: Kinetics of hydrolysis by receptor 37G2. An excerpt: Reaction kinetics were studied using three reactant ligands as substrates for monoclonal receptors 37G2 and 22F5. Data from initial rates were consistent with Michaelis-Menten reaction mechanism for a usual enzyme-substrate system. Initial rates were followed using at 271 nm using a U.V.-visible spectorphotometer for Compound 17, and a fluorescence spectrometer for Compounds 5 and 20, using an excitation wavelength of 355 nm and an emission wavelength of 455 nm for both compounds.
Lineweaver-Burke plots for the catalyzed hydrolysis of Compounds 17, 5 and 20 obtained in the presence and absence of Compound 12i as inhibitor were prepared as discussed for FIG. 4. In particular, Compound 17 was present at concentrations of 1-16 uM with inhibitor concentrations of 100 and 300 nanomolar (nM). Compound 5 was present at concentrations of 1-10 uM with inhibitor concentrations of 100 and 200 nM. Compound 20 was present at concentrations of 2-20 uM with inhibitor concentrations of 25 and 100 nM. […]
50 mM phosphate buffer at a pH value of 8.0. The reactant ligand was
dissolved in dioxane and admixed in the amounts discussed above. Two
milliliters of reaction solution were utilized as was a dioxane
concentration of 2 percent by volume. Assays with Compound 17 as reac tan
ligand utilized 500 nanomolar receptor (based on a molecular weight of
150,000 daltons) in the above buffer, using the reactant ligand dissolved
in dioxane and a total dioxane concentration of 2 percent by volume.

In the case of `O=C(Cc1ccc(NC(=O)C(F)(F)F)cc1)Oc1ccc2ccc(=O)oc2c1` [Compound 5], the “catalytic hydrolysis by P2 50D8” value in the assay with P2 50D8 was “capable of catalytically hydrolyzing”. In assay [1], the “receptors (of eight) that catalyzed hydrolysis of the compound” value was “all of the receptors catalyzed hydrolysis”. Besides, the “reactivity with Compound 5 in fluorescence assay” value in assay [2] is “None of these were reactive”.

In the case of `CC(=O)Nc1ccc(CC(=O)Oc2cccc3ccccc23)cc1` [Compound 17], the “receptors (of eight) that catalyzed hydrolysis of the compound” value in assay [1] is “all of the receptors catalyzed hydrolysis”. Moreover, the Km in the assay on Monoclonal Receptor 37G2 (50 mM phosphate pH 8.0, 500 nM receptor, 2% dioxane, figure = Km × 10^6) is 15 µM. Besides, the kcat with Monoclonal Receptor 37G2 (pH 8.0) came out at 0.0016 s⁻¹. In addition, the Vmax with Monoclonal Receptor 37G2 (pH 8.0, 500 nM receptor, figure = Vmax × 10^9) came out at 0.042 µM/min.
